Earlier results, collected in US9314429B2, “Rapidly dispersible dosage form of oxcarbazepine” (APRECIA PHARMACEUTICALS COMPANY, priority 2013, dated 2016).

In the case of NC(=O)N1c2ccccc2CC(=O)c2ccccc21 [OXC, 10,11-Dihydro-10-oxo-5H-dibenz[b,f]azepine-5-carboxamide], the water solubility is given as “poorly water soluble”.
